A short description of data set [1]: Solubility of dobutamine salts (as dobutamine base, in water). In kind it is physicochemical. As for the experimental part:
8.3 Millimoles of dobutamine free base and 8.7 millimoles of one of each of the following acids: glycolic, (+)-tartaric, gluconic, lactobionic and glucoheptonic, were mixed under an N2 atmosphere were an amount of 0.035 g aqueous sodium bisulfite dissolved in water for injection such that the final volume was […]; i.e., 100 mg/ml of dobutamine base. If required, the salt-forming mixture was warmed to expedite solution of dobutamine base. The solid salt can be obtained from the solution, if desired, by evaporation of the solvent.
The solubilities of each of the dobutamine salts thus prepared was in excess of 100 mg/ml. By contrast, a saturated solution of dobutamine hydrochloride provides about 25 mg/ml of dobutamine.
Furthermore, with any of the acids named, stereoisomers thereof can also be used rather than a racemate. Dobutamine content of all solutions is monitored with UV.

For data set [2] the following is noted: cited from earlier work.
Data set [3] is described as follows: Storage stability of concentrate solutions. In kind it is physicochemical. The conditions noted are these: at 5° C., N2 atmosphere, with sodium bisulfite, pH=3.65. From the text: In a repeat with (-) tartaric acid, 58.6 g of dobutamine hydrochloride in deaerated water were neutralized with dilute aqueous sodium hydroxide in the presence of a peroxide scavenger under N2; pH=11.09. The precipitate of dobutamine base was washed with the […] and dried. The filter cake was dissolvd in 2 l of deaerated water followed by 26.1 g of (-)-tartaric acid and 0.8 g of sodium bisulfite; pH=3.65. The solution was filtered and then stored at […], always under an N2 atmosphere. Such stored concentrate solutions are stable for 12 months or more at 5° C.

Setting [4] is: ascribed to dobutamine, U.S. Pat. No. 3,932,461.
Where [5] appears, read: U.S. Pat. No. 3,932,461 (Suh I).

Counter-ions that a name gives are not always drawn.

In the case of `CC(CCc1ccc(O)cc1)NCCc1ccc(O)c(O)c1` (racemic) [dobutamine salt of (±)-tartaric acid], the “solubility of the dobutamine salt (in words)” value in data set [1] (salts with further tartaric acid isomers) is “high solubility”.

For `CC(CCc1ccc(O)cc1)NCCc1ccc(O)c(O)c1` (racemic) [dobutamine, (±)-N-[3-(4-hydroxyphenyl)-1-methylpropyl]2-(3,4-dihydroxyphenyl) ethylamine], the “solubility in water (in words)” value in data set [1] (dobutamine base separates from the alkaline medium) was “water-insoluble”. In data set [2] (setting [4]), the contractile force result is “increased contractile force” and the “effect on blood pressure or heart rate” value was “without significant effect on blood pressure or heart rate”.

As for `CC(CCc1ccc2c(c1)OCO2)NCCc1ccc(O)c(O)c1` (centres unmarked) [N-[3-(3,4-methylenedioxyphenyl)-1-methylpropyl 2-(3,4-dihydroxyphenyl)ethylamine], in data set [2] (setting [5]), the cardiotonic properties result was “cardiotonic properties similar to those ascribed to dobutamine” and the “depressant or analgesic activity” value is “depressants or analgesics”.

On to `CC(CCc1ccc(O)cc1)NCCc1ccc(O)c(O)c1` (centres unmarked) [dobutamine hydrochloride], for which, in data set [1] (water, saturated solution, mg/ml of dobutamine, read-out: dobutamine provided by a saturated solution), the solubility is ~25 mg/mL.

`CC(CCc1ccc(O)cc1)NCCc1ccc(O)c(O)c1` (stereo not drawn) [dobutamine salt of (-)-tartaric acid]: the “stability of stored concentrate solutions” value in data set [3] was ≥ 12 months.
